Experimental data taken from PubChem BioAssay (NCI).
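Method: 48-hour compound exposure of cells in 96-well plates, five concentrations, linear interpolation of endpoints. GI50 = concentration required for 50% inhibition of growth. TGI marks complete inhibition of growth.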

How the values were obtained:
Assay in all cases: DTP human tumour cell line panel, 48 h
[1] = test system: UO-31 renal
[2] = test system: MDA-MB-231 breast
[3] = test system: EKVX NSCLC
[4] = test system: SF-295 CNS
[5] = test system: OVCAR-4 ovarian
[6] = test system: HOP-92 NSCLC
[7] = test system: CCRF-CEM leukemia
[8] = test system: UACC-257 melanoma
[9] = test system: SK-OV-3 ovarian
[10] = test system: OVCAR-8 ovarian
[11] = test system: OVCAR-3 ovarian
[12] = test system: TK-10 renal
[13] = test system: ACHN renal
[14] = test system: SF-539 CNS
[15] = test system: SW-620 colon
[16] = test system: HCT-15 colon
[17] = test system: M14 melanoma
[18] = test system: HL-60(TB) leukemia
[19] = test system: CAKI-1 renal

Row | Compound | TGI [1] [µM] | TGI [2] [µM] | TGI [3] [µM] | TGI [4] [µM] | TGI [5] [µM] | TGI [6] [µM] | TGI [7] [µM] | TGI [8] [µM] | TGI [9] [µM] | TGI [10] [µM] | TGI [11] [µM] | TGI [12] [µM] | TGI [13] [µM] | TGI [14] [µM] | TGI [15] [µM] | TGI [16] [µM] | TGI [17] [µM] | TGI [18] [µM] | TGI [19] [µM] | GI50 [2] [µM]
1 | C/C(=C\COP(=O)(O)OP(=O)(O)O)CC/C=C(\C)CNc1ccc([N+](=O)[O-])cc1 | > 100 | > 100 | > 100 | > 100 | > 100 | > 100 | > 100 | > 100 | > 100 | > 100 | > 100 | > 100 | > 100 | > 100 | > 100 | > 100 | > 100 | > 100 | > 100 | –
2 | Nc1c(Cl)c([N+](=O)[O-])cc2c1OCCCCO2 | > 100 | > 100 | > 100 | > 100 | > 100 | > 100 | > 100 | > 100 | 55.6 | > 100 | > 100 | > 100 | > 100 | > 100 | > 100 | > 100 | > 100 | > 100 | > 100 | –
3 | O=C(O)CCSc1nnc(COc2ccc(Cl)cc2)n1-c1ccccc1 | > 100 | > 100 | > 100 | > 100 | > 100 | > 100 | > 100 | > 100 | > 100 | > 100 | > 100 | > 100 | > 100 | > 100 | > 100 | > 100 | > 100 | > 100 | > 100 | –
4 | COc1ccc(CCN(C)C(=O)CC(C#N)(c2ccccc2)c2ccc(OC)c(OC)c2)cc1OC (stereo not given) | > 100 | > 100 | > 100 | > 100 | > 100 | > 76 | > 100 | > 100 | > 100 | > 100 | > 100 | > 100 | > 100 | > 100 | > 100 | > 100 | > 100 | > 100 | > 100 | –
5 | N#CC(C#N)=C1CCCCc2ccc([N+](=O)[O-])cc21 | > 100 | > 100 | > 100 | > 100 | > 100 | > 100 | > 100 | > 100 | > 100 | > 100 | > 100 | > 100 | > 100 | > 100 | > 100 | > 100 | > 100 | > 100 | > 100 | –
6 | Cc1cc(NCC2CC/C(=C\C=C\c3ccccc3)C2=O)no1 (stereo not given) | > 100 | > 100 | > 100 | > 100 | > 100 | > 100 | > 100 | > 100 | > 100 | > 100 | > 100 | > 100 | > 100 | > 100 | > 100 | > 100 | > 100 | > 100 | > 100 | –
7 | C/C(=C/CNc1ncnc2c1ncn2CCC#N)CO | > 100 | > 100 | > 100 | > 100 | > 100 | > 100 | > 100 | > 100 | > 100 | > 100 | > 100 | > 100 | > 100 | > 100 | > 100 | – | > 100 | > 100 | > 100 | –
8 | C[C@@H]1OC2(O)[C@@H]3CCCN3C(=O)N(Cc3ccccc3)N2C1=O (stereo not given in full) | – | > 100 | > 100 | > 100 | > 100 | > 100 | > 100 | > 100 | > 100 | > 100 | > 100 | > 100 | > 100 | > 100 | > 100 | > 100 | > 100 | > 100 | > 100 | –
9 | CCCCCNC1=CC(=O)c2ccccc2C1=O | > 88.6 | 44.3 | > 100 | > 70.3 | > 100 | 59.1 | > 100 | > 100 | > 84.7 | 51.8 | 65 | 52.3 | > 100 | 41 | > 100 | > 100 | > 100 | > 62.6 | 80.6 | –
10 | COC(=O)[C@]12CSC[C@H]1C[C@H](c1ccc(N(C)C)cc1)N2 | > 100 | > 100 | > 100 | > 100 | > 100 | > 100 | > 100 | > 100 | > 100 | > 100 | > 100 | > 100 | > 100 | > 100 | > 100 | > 100 | > 100 | > 100 | > 100 | –
11 | CC(C)N(c1cc2c(cc1F)c(=O)c(C(=O)O)cn2-c1ccc(N2CCN(C)CC2)cn1)C(C)C | > 100 | > 100 | > 100 | > 100 | > 100 | > 100 | > 100 | > 100 | > 100 | > 100 | > 100 | > 100 | – | > 100 | > 100 | > 100 | > 100 | > 100 | > 100 | –
12 | COc1ccc2c(c1)/C(=C\c1cccc(/C=C3/C(=O)Nc4ccc(OC)cc43)n1)C(=O)N2 | 3.81 | 4.78 | > 40.3 | 30.3 | 3.28 | 7.44 | > 38 | 18.4 | 17.3 | > 25.4 | 5.38 | 6.57 | 5.41 | 5.7 | 7.92 | > 25.1 | 3.22 | 2.05 | 5.62 | 0.873
13 | Nc1nncs1 | > 5000 | > 5000 | > 5000 | > 5000 | > 5000 | 4660 | > 5000 | > 4200 | 928 | > 5000 | > 5000 | > 5000 | > 5000 | > 5000 | > 5000 | 4920 | > 5000 | > 5000 | > 4630 | –
14 | CC(=C(C(=O)O)C(=O)O)c1cc(-c2cccs2)cc(-c2ccc(Cl)cc2)c1O | 24.5 | 43.5 | 32.2 | 46.5 | > 71.9 | 34.3 | > 76.5 | 33.5 | > 82.5 | 52.8 | 33.6 | 31.9 | 29.4 | 29.8 | 43.6 | 37.5 | 32.7 | 46.6 | 40.6 | –
15 | CO[C@H](c1ccccc1)[C@H](O)[C@](O)(c1ccccc1)P(=O)(OC)OC | > 100 | > 100 | > 100 | > 100 | > 100 | > 100 | > 100 | > 100 | > 100 | > 100 | > 100 | > 100 | > 100 | > 100 | > 100 | > 100 | > 100 | > 100 | > 100 | –
16 | O=c1[nH]n(Cc2ccccc2CCl)c2ccc([N+](=O)[O-])cc12 | > 100 | > 100 | > 100 | > 100 | > 100 | > 100 | > 100 | > 100 | 81.8 | > 100 | > 100 | > 100 | > 100 | > 100 | > 100 | > 100 | > 100 | 99.6 | 63.3 | –
17 | COc1cc(C2S/C(=C/c3ccccc3)C(=O)N2c2ccc([N+](=O)[O-])cc2)cc(OC)c1OC (stereo not given) | > 100 | > 100 | > 100 | > 100 | > 100 | > 100 | > 100 | > 100 | > 100 | > 100 | > 100 | > 100 | > 100 | > 100 | > 100 | > 100 | > 100 | > 100 | > 100 | –
18 | CC1(C)N=C(N)N=C(N)N1c1cccc(OCc2cccc([N+](=O)[O-])c2)c1 | > 100 | > 100 | > 100 | > 100 | > 100 | > 100 | > 100 | 48.2 | > 100 | > 100 | > 73.9 | > 81.8 | > 100 | > 79.4 | > 100 | > 100 | > 100 | 58.2 | > 100 | –
19 | COC(=O)c1nc2c3c(cccc3c1C(=O)OC)Nc1ccccc1-2 | > 100 | > 100 | > 100 | > 100 | > 100 | 50.2 | > 100 | > 100 | > 100 | – | > 100 | > 100 | > 100 | > 100 | > 100 | – | > 100 | > 100 | > 100 | –
20 | CC(C)(CCCCC(C)(C)NCC1COc2ccccc2O1)NCC1COc2ccccc2O1 (stereo not given) | – | > 10 | > 10 | > 10 | > 10 | 7.43 | > 10 | 4.1 | > 10 | > 10 | > 10 | > 10 | > 10 | 3.34 | > 10 | > 10 | 3.4 | > 10 | > 10 | –
